Measurements taken from BindingDB's records for doi:10.1021/acs.jmedchem.9b02101 (Kyorin Pharmaceutical, 2020).
pEC50, pIC50: −log10 of the molar value.

What was measured:
[1] = Agonist activity at FPR2 in mouse peritoneal macrophages assessed as stimulation of phagocytosis preincubated for 15 mins followed by FITC labeled zymosan addition and measured after 45 mins by Trypan blue staining based fluorescence assay
[2] = Agonist activity at FPR2 in human HL-60 cells assessed as reduction in chemoattractant induced chemotaxis by luminescence cell viability assay

Molecule `COc1cc(F)c([C@@H]2CNC(=O)[C@H]2NC(=O)Nc2ccccc2)c(F)c1` has a pEC50 [1] of over 9.00 and a pIC50 [2] of 7.24.
